Reference: US9518041B2, “(+)-5-(3,4-difluorophenyl)-5-[(3-methyl-2-oxopyridin-1(2H)-yl)methyl]imidazolidine-2,4-dione and drug containing same” (KAKEN PHARMACEUTICAL CO., LTD., priority 2013, dated 2016)
pIC50: −log10 of the molar value.

Key:
Type in all cases: biochemical
human MMP-14 = target: T1, human MMP-14 (Homo sapiens, UniProt P50281); assay: MMP-14 inhibition test; conditions: read-out: Inhibitory activity (IC50, nM) MMP-14
T1 construct: purchased Calbiochem 475935
Experimental: (§1) MMP inhibition tests can be carried out, for example, using a fluorescent synthetic substrate based on the methods described in Bickett et al. (D. Mark Bickett et al., Anal. Biochem., 1993, 212, 58-64) and Nagase et al. (H. Nagase et al., J. Biol. Chem., 1994, 269, 20952-20957). The method for each MMP inhibition test is shown below.
(§2) 90 μL (1.9 ng) of human MMP-14 (Calbiochem #475935) prepared with an assay buffer A was added to 90 μL of a 20 μM fluorescent substrate (Dnp-Pro-Cha-Gly-Cys(Me)-His-Ala-Lys(Nma)-NH2) (SEQ ID NO: 2) prepared with an assay buffer B, and reacted at 37° C. for 5 hours. Enzyme activity was then determined by measuring with a fluorescence intensity meter (Labsystems, Fluoroskan Ascent) at an excitation wavelength of 355 nm and a measurement wavelength of 460 nm.
(§3) From the enzyme activity in the presence or the absence of the test substance, the inhibition rate was determined, and the 50% inhibitiory concentration (IC50) of the test substance was calculated.

human MMP-13 = target: T2, human MMP-13 (Homo sapiens, UniProt P45452); assay: MMP-13 inhibition test; conditions: read-out: Inhibitory activity (IC50, nM) MMP-13
T2 construct: purchased Calbiochem 444287
Experimental: as §1
as §2, with “μL (130” for “μL (1.9”, “human MMP-13” for “human MMP-14”, “(Calbiochem #444287) was mixed with 10 μL of 10 mM APMA, and activated by reacting at 37° C. for 1 hour. 10 μL of the resultant enzyme solution was diluted to 90 μL” for “(Calbiochem #475935) prepared”, “buffer A. The mixture” for “buffer A”, “for 4” for “for 5”
as §3

human MMP-17 = target: T3, human MMP-17 (Homo sapiens, UniProt Q9ULZ9); assay: MMP-17 inhibition test; conditions: read-out: Inhibitory activity (IC50, nM) MMP-17
T3 sequence (Q9ULZ9 126-300 limits assumed): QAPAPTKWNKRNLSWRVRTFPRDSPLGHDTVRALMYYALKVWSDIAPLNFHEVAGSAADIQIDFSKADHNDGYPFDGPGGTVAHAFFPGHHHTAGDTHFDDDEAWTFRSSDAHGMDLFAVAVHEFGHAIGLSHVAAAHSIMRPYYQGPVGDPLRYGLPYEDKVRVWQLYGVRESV
Experimental: as §1
90 μL (5.8 ng) of human MMP-17 (Calbiochem #475940) prepared with an assay buffer A was added to 90 μL of a 20 μM fluorescent substrate (MOCAc-Pro-Leu-Gly-Leu-A2pr(Dnp)-Ala-Arg-NH2, Peptide Institute Inc., #3163-v) (SEQ ID NO: 3) prepared with an assay buffer B, and reacted at room temperature for 5 hours. Enzyme activity was then determined by measuring with a fluorescence intensity meter (Labsystems, Fluoroskan Ascent) at an excitation wavelength of 320 nm and a measurement wavelength of 405 nm.
From the enzyme activity in the presence or the absence of the test substance, the inhibition rate was determined, and the 50% inhibitory concentration (IC50) of the test substance was calculated.

human MMP-3 = target: T4, human MMP-3 (Homo sapiens, UniProt P08254); assay: MMP-3 inhibition test; conditions: read-out: Inhibitory activity (IC50, nM) MMP-3
T4 construct: purchased Calbiochem 444217
Experimental: as §1
90 μL (1.5 ng) of human MMP-3 (Calbiochem #444217) prepared with an assay buffer A was added to 90 μL of a 20 μM fluorescent substrate NFF-3 (MOCAc((7-methoxycoumarin-4-yl)acetyl)-Arg-Pro-Lys-Pro-Val-Glu-Nva-Trp-Arg-Lys(Dnp)-NH2, Peptide Institute Inc., #3168-v) (SEQ ID NO: 4) prepared with an assay buffer B, and reacted at 37° C. for 4 hours. Enzyme activity was then determined by measuring with a fluorescence intensity meter (Labsystems, Fluoroskan Ascent) at an excitation wavelength of 320 nm and a measurement wavelength of 405 nm.
as §3

TACE = target: T5, TACE (Homo sapiens, UniProt P78536); assay: TACE inhibition test (in vitro), fluorescent synthetic substrate; conditions: 37° C., 1.5 hours, read-out: TACE inhibitory activity, IC50 value
T5 construct: made in house; host or cells: mammalian cells or insect cells
Experimental: The nucleotide sequence of TACE has been reported by Moss et al. (Moss, M. L. et al., Nature 1997, 385, 733-736). Accordingly, the cDNA of TACE was obtained according to the prescribed method from THP-1 cells or the like, and then incorporated the cDNA into an expression vector. Next, this vector was transformed into mammalian cells or insect cells, and TACE expression was obtained. […]
Namely, 90 μL of an enzyme solution prepared with an assay buffer A (50 mM tris-hydrochloric acid buffer (pH 7.5) including 200 mM sodium chloride, 5 mM calcium chloride, 10 μM zinc sulfate, and 2 mg/mL bovine serum albumin) and 90 μL of a fluorescent synthetic substrate prepared with an assay buffer B (50 mM tris-hydrochloric acid buffer (pH 7.5) including 200 mM sodium chloride, 5 mM calcium chloride, 10 μM zinc sulfate, and 0.05% PLURONIC F-68) were mixed together, and reacted at 37° C. for 1.5 hours. Enzyme activity was then determined by measuring with a fluorescence intensity meter (Labsystems, Fluoroskan Ascent) at an excitation wavelength of 355 nm and a measurement wavelength of 460 nm. […]

T4 sequence (P08254 100-272 limits assumed): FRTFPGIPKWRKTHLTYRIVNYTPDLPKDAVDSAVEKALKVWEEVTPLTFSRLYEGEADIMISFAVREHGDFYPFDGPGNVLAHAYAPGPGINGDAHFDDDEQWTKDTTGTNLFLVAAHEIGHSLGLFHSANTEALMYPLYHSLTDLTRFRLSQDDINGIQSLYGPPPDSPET
T5 sequence (P78536 215-824): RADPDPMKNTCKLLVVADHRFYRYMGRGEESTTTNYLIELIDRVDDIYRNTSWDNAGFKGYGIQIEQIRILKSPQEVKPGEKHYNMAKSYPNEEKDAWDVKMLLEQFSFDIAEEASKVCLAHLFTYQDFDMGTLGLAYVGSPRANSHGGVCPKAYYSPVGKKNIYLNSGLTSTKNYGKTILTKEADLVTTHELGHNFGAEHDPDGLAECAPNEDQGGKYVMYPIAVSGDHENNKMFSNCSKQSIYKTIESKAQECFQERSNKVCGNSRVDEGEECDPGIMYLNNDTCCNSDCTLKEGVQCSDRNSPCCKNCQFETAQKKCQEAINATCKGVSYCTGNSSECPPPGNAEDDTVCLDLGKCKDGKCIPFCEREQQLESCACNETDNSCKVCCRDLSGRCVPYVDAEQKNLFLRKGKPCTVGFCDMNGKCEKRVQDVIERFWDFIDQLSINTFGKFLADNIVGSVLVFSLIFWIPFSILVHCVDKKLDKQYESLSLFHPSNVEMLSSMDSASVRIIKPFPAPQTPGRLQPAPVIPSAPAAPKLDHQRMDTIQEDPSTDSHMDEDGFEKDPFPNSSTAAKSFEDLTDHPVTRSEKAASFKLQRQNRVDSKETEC

For `Cc1cccn(CC2(c3ccc(F)c(F)c3)NC(=O)NC2=O)c1=O` (single isomer, unassigned; (+)) [(+)-5-(3,4-difluorophenyl)-5-[(3-methyl-2-oxopyridin-1(2H)-yl)methyl]imidazolidine-2,4-dione], the IC50 (human MMP-14) was over 10000 nM, the IC50 (human MMP-13) was over 10000 nM and the IC50 (human MMP-17) was over 10000 nM. For the same compound, the IC50 (human MMP-3) was over 10000 nM and the pIC50 (TACE) was at least 7.00.
